Test system: patients with ARSI-resistant mCRPC
Experiment: Phase 1 trial of AZD5069 plus enzalutamide: safety and tolerability (DLTs, treatment-emergent adverse events, NCI-CTCAE v.4.0)
Format: in vivo
Text: The primary trial objective was to evaluate the safety and tolerability of the combination. Key secondary objectives were to evaluate pharmacokinetic–pharmacodynamic parameters and antitumour activity.
Eligible patients were consenting patients aged ≥18 years, who had mCRPC with histologically confirmed prostate adenocarcinoma histology, documented cancer progression at the time of trial entry by Response Evaluation Criteria in Solid Tumors (v.1.1) and/or Prostate Cancer Working Group 2 criteria, and PSA of ≥10 ng ml^−1 at screening.
The dose-escalation phase used a rule-based 3 + 3 design, with an initial three patients enrolled per dose level. If none of the first three patients experienced a DLT, dose escalation proceeded to the next dose level. […] If fewer than two of six patients at any dose level experienced a DLT, dose escalation continued to the next level. If at least two out of up to six patients experienced a DLT, dose escalation stopped and this dose level was defined as the maximum administered dose. Once this maximum administered dose was defined, the maximum tolerated dose (MTD) was confirmed at the dose level below the maximum administered dose. At least six evaluable patients were required to establish the MTD at a specific dose level. […] Intra-patient dose escalation was not permitted. Start of dosing between the first and second patient enrolled to each dose level was staggered by 1 week. Once the MTD was determined in the phase 1 study, the recommended phase 2 dose was determined on the basis of available data, including but not limited to safety and response.
DLTs were defined as described in the study protocol. […] Prophylaxis with growth factor support or antipyretics were not permitted. Investigators determined whether an adverse event was related to the study drugs. If a patient experienced clinically significant and/or unacceptable toxicity, including a DLT, not attributable to the disease or disease-related processes, dosing was interrupted or the dose was reduced and supportive therapy was administered as required.

C[C@@H](Oc1cc(NS(=O)(=O)N2CCC2)nc(SCc2cccc(F)c2F)n1)[C@@H](O)CO [AZD5069]
0 (0) n (%): TEAE Hypophosphataemia, G≥3 (AZD5069 80 mg BD (n=4)) | TEAE Nausea, All G (AZD5069 80 mg BD (n=4)) | TEAE Nausea, G≥3 (AZD5069 80 mg BD (n=4)) | TEAE Oedema genital, All G (AZD5069 80 mg BD (n=4)) | TEAE Oedema genital, G≥3 (AZD5069 80 mg BD (n=4)) | TEAE Platelet decreased, All G (AZD5069 80 mg BD (n=4)) | TEAE Platelet decreased, G≥3 (AZD5069 80 mg BD (n=4)) | TEAE Pruritus, All G (AZD5069 80 mg BD (n=4)) | TEAE Pruritus, G≥3 (AZD5069 80 mg BD (n=4)) | TEAE Skin infection, G≥3 (AZD5069 80 mg BD (n=4)) | TEAE Vomiting, All G (AZD5069 80 mg BD (n=4)) | TEAE Vomiting, G≥3 (AZD5069 80 mg BD (n=4)) | TEAE White blood cell decreased, All G (AZD5069 80 mg BD (n=4)) | TEAE White blood cell decreased, G≥3 (AZD5069 80 mg BD (n=4)) | TEAE Anemia, G≥3 (AZD5069 120 mg BD (n=3)) | TEAE Aphasia, All G (AZD5069 120 mg BD (n=3)) | TEAE Aphasia, G≥3 (AZD5069 120 mg BD (n=3)) | TEAE Arthralgia, All G (AZD5069 120 mg BD (n=3)) | TEAE Arthralgia, G≥3 (AZD5069 120 mg BD (n=3)) | TEAE Aspartate aminotransferase increased, All G (AZD5069 120 mg BD (n=3)) | TEAE Aspartate aminotransferase increased, G≥3 (AZD5069 120 mg BD (n=3)) | TEAE Constipation, G≥3 (AZD5069 120 mg BD (n=3)) | TEAE Death, All G (AZD5069 120 mg BD (n=3)) | TEAE Death, G≥3 (AZD5069 120 mg BD (n=3)) | TEAE Decreased appetite, All G (AZD5069 120 mg BD (n=3)) | TEAE Decreased appetite, G≥3 (AZD5069 120 mg BD (n=3)) | TEAE Diarrhoea, All G (AZD5069 120 mg BD (n=3)) | TEAE Diarrhoea, G≥3 (AZD5069 120 mg BD (n=3)) | TEAE Dry skin, All G (AZD5069 120 mg BD (n=3)) | TEAE Dry skin, G≥3 (AZD5069 120 mg BD (n=3)) | TEAE Fatigue, G≥3 (AZD5069 120 mg BD (n=3)) | TEAE Headache, All G (AZD5069 120 mg BD (n=3)) | TEAE Headache, G≥3 (AZD5069 120 mg BD (n=3)) | TEAE Hypophosphataemia, All G (AZD5069 120 mg BD (n=3)) | TEAE Hypophosphataemia, G≥3 (AZD5069 120 mg BD (n=3)) | TEAE Nausea, G≥3 (AZD5069 120 mg BD (n=3)) | TEAE Oedema genital, All G (AZD5069 120 mg BD (n=3)) | TEAE Oedema genital, G≥3 (AZD5069 120 mg BD (n=3)) | TEAE Platelet decreased, G≥3 (AZD5069 120 mg BD (n=3)) | TEAE Pruritus, All G (AZD5069 120 mg BD (n=3)) | TEAE Pruritus, G≥3 (AZD5069 120 mg BD (n=3)) | TEAE Skin infection, All G (AZD5069 120 mg BD (n=3)) | TEAE Skin infection, G≥3 (AZD5069 120 mg BD (n=3)) | TEAE Vomiting, All G (AZD5069 120 mg BD (n=3)) | TEAE Vomiting, G≥3 (AZD5069 120 mg BD (n=3)) | TEAE White blood cell decreased, All G (AZD5069 120 mg BD (n=3)) | TEAE White blood cell decreased, G≥3 (AZD5069 120 mg BD (n=3)) | TEAE Aphasia, All G (AZD5069 160 mg BD (n=6)) | TEAE Aphasia, G≥3 (AZD5069 160 mg BD (n=6)) | TEAE Arthralgia, All G (AZD5069 160 mg BD (n=6))
2 (67) n (%): TEAE Neutrophil decreased, G≥3 (AZD5069 120 mg BD (n=3))
1 (33) n (%): TEAE Anemia, All G (AZD5069 120 mg BD (n=3)) | TEAE Constipation, All G (AZD5069 120 mg BD (n=3)) | TEAE Fatigue, All G (AZD5069 120 mg BD (n=3)) | TEAE Nausea, All G (AZD5069 120 mg BD (n=3)) | TEAE Platelet decreased, All G (AZD5069 120 mg BD (n=3))
2 (33) n (%): TEAE Anemia, All G (AZD5069 160 mg BD (n=6))
1 (25) n (%): TEAE Hypophosphataemia, All G (AZD5069 80 mg BD (n=4)) | TEAE Neutrophil decreased, G≥3 (AZD5069 80 mg BD (n=4)) | TEAE Skin infection, All G (AZD5069 80 mg BD (n=4))
3 (75) n (%): TEAE Neutrophil decreased, All G (AZD5069 80 mg BD (n=4))
1 (17) n (%): TEAE Anemia, G≥3 (AZD5069 160 mg BD (n=6))
3 (100) n (%): TEAE Neutrophil decreased, All G (AZD5069 120 mg BD (n=3))

From paper PMC10686834, “Targeting myeloid chemotaxis to reverse prostate cancer therapy resistance” (Nature, 2023)
